Patent US20220401514A1, “ANTIMICROBIAL, BACTERIOPHAGE-DERIVED POLYPEPTIDES AND THEIR USE AGAINST GRAM-NEGATIVE AND ACID-FAST BACTERIA” (CONTRAFECT CORPORATION, priority 2019, published 2022)
Like-named read-outs stand apart in the source and are kept apart here.

Assays:
Klebsiella pneumoniae [1] = experiment: microbe, parasite or virus in culture; assay type: cell-based; conditions: CAA without human serum
Pseudomonas aeruginosa = experiment: microbe, parasite or virus in culture; assay type: cell-based; conditions: for MIC: CAA without human serum
M. intracellulare = experiment: 45 hr MIC against M. intracellulare (NTM); assay type: cell-based, Mycobacterium intracellulare; conditions: M. intracellulare (Cuttino and McCabe) Runyon ATCC 13950
S. maltophilia = experiment: MIC against S. maltophilia isolates; assay type: cell-based, Stenotrophomonas maltophilia
In short: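 MIC in μg/mL for Chp peptides across several S. maltophilia isolates, n denoting the number of isolates tested.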

[2] = test system: P. aeruginosa strain CFS-1292; experiment: Checkerboard assay (FICI) with antibiotics, P. aeruginosa; assay type: cell-based, Pseudomonas aeruginosa; parameters: key to FIC Index: FICI = FIC A + FIC B; each FIC = MIC in combination / MIC alone; conditions: for FICI: CAA + […] human serum; for Chp peptide MIC in checkerboard: P. aeruginosa CFS-1292, CAA + […] human serum
In short: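 Antibiotic diluted 2-fold along one plate axis against Chp peptide; bacteria added at 1×10^5 […] in CAA, optionally with human serum or pulmonary surfactant.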

[3] = test system: M. kansasii Hauduroy ATCC 12478; experiment: 45 hr MIC against M. kansasii (NTM), Mueller Hinton broth; assay type: cell-based, Mycobacterium kansasii
Klebsiella pneumoniae [4] = assay type: cell-based
Procedure: Determination of Minimal Inhibitory Concentrations (MIC).
Additional MIC testing was performed for several peptides against the ESKAPE pathogens Escherichia coli, Enterobacter cloacae, Klebsiella pneumoniae, and Acinetobacter baumannii, in CAA supplemented with human serum (Table D).

[5] = test system: carbapenem-resistant P. aeruginosa clinical isolate CFS-1292; experiment: MIC by modified CLSI broth microdilution against P. aeruginosa CFS-1292 (CAA, CAA + human serum); assay type: cell-based, Pseudomonas aeruginosa
[6] = test system: P. aeruginosa strain CFS-1292; experiment: MIC in presence of divalent cations (calcium chloride, magnesium sulfate); assay type: cell-based, Pseudomonas aeruginosa
Procedure: Next, Chp peptides were evaluated in the presence of different divalent cations. […]; (2) in the presence of 2 mM calcium chloride alone; (3) in the presence of 1 mM magnesium sulfate alone; and (4) in the presence of both 2 mM calcium chloride and 1 mM magnesium sulfate. […]

[7] = test system: P. aeruginosa strain CFS-1292; experiment: MIC in presence of mouse, rat, rabbit and human serum ([…] each); assay type: cell-based, Pseudomonas aeruginosa; conditions: P. aeruginosa CFS-1292
Procedure: The activity of several Chp peptides against P. aeruginosa strain CFS-1292 in animal serum was evaluated. […] Rat, mouse, and rabbit serum were all obtained from pooled gender samples.

[8] = test system: Pseudomonas aeruginosa, Escherichia coli, Enterobacter cloacae, Klebsiella pneumoniae, and Acinetobacter baumannii; experiment: MIC against a range of Gram-negative organisms (statements covering several species); assay type: cell-based; conditions: Tables 40-44 isolates
In short: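 Peptide MICs were determined by growth inhibition in CAA medium supplemented with human serum.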

[9] = test system: P. aeruginosa strain CFS-1292; experiment: MIC in presence and absence of NaCl (140 mM); assay type: cell-based, Pseudomonas aeruginosa
Procedure: Certain Chp peptides were evaluated over a range of physiological NaCl levels and pH values, and were further evaluated for activity in the presence of various divalent cations.

[10] = P. aeruginosa isolates (n per peptide in table)
[11] = S. maltophilia isolates (n per peptide in table)
[12] = K. pneumoniae isolates (n per peptide in table)

For “MRLKMARRRYRLPRRRSRRLFSRTALRMHPRNRLRRIMRGGIRF [Chp2]”, the MIC (Klebsiella pneumoniae [1]; Klebsiella pneumoniae (ATCC 10031, MIC control strain), RSC 814) was 4 µg/mL, the MIC (Klebsiella pneumoniae [1]; Klebsiella pneumoniae (g2-3 HM35K), RSC 1138) was 4 µg/mL and the MIC (Klebsiella pneumoniae [1]; Klebsiella sp. (HM-44; colon, Crohn's disease), RSC 1139) was 2 µg/mL. For the same sequence, the MIC (Klebsiella pneumoniae [1]; Klebsiella spp. (HM-223; gut of Crohn's disease patient), RSC 1131) was 4 µg/mL, the MIC (Pseudomonas aeruginosa; P. aeruginosa 453 (Human clinical isolate, HSS), RSC 1292) was 4 µg/mL and the MIC (Pseudomonas aeruginosa; P. aeruginosa (ATCC 14213, human hip wound), RSC 1111) was 4 µg/mL. For the same sequence, the MIC (Pseudomonas aeruginosa; P. aeruginosa (ATCC 15152, abscess in middle ear), RSC 1110) was 4 µg/mL, the MIC (Pseudomonas aeruginosa; P. aeruginosa (ATCC 15692, infected wound), RSC 489) was 4 µg/mL and the MIC (Pseudomonas aeruginosa; P. aeruginosa (ATCC 15692, infected wound), RSC 1115) was 4 µg/mL. For the same sequence, the MIC (Pseudomonas aeruginosa; P. aeruginosa (ATCC 17646, human liver abscess), RSC 1109) was 4 µg/mL, the MIC (Pseudomonas aeruginosa; P. aeruginosa (ATCC 19142, tracheobronchial secretion), RSC 1108) was 2 µg/mL and the MIC (Pseudomonas aeruginosa; P. aeruginosa (ATCC 25102, bacteriophage host), RSC 1114) was 4 µg/mL. It also gave an MIC (Pseudomonas aeruginosa; P. aeruginosa (ATCC 27853, MIC control strain), RSC 815) of 4 µg/mL, an MIC (Pseudomonas aeruginosa; P. aeruginosa (ATCC BAA-27, lab strain), RSC 1113) of 4 µg/mL and an MIC (Pseudomonas aeruginosa; P. aeruginosa (PAO1, alternate source, HER1018), RSC 490) of 4 µg/mL. For the same sequence, the MIC50 (Pseudomonas aeruginosa; [10]) was 1 µg/mL, the MIC100 (Pseudomonas aeruginosa; [10]) was 1 µg/mL and the “MIC Range” value (Pseudomonas aeruginosa; [10]) was 0.25 to 1 µg/mL. The “45 hr MIC” value (M. intracellulare) was 0.5 µg/mL, the MIC50 (S. maltophilia; [11]) was 0.5 µg/mL and the MIC100 (S. maltophilia; [11]) was 1 µg/mL. For the same sequence, the “MIC Range” value (S. maltophilia; [11]) was 0.5 to 1 µg/mL, the “activity against S. maltophilia” value (S. maltophilia; Table 45 isolates) was “active” and the “FIC Index” value ([2]; Chp peptide combined with Amikacin, P. aeruginosa CFS-1292) was 0.5. The “FIC Index” value ([2]; Chp peptide combined with Azithromycin, P. aeruginosa CFS-1292) was 0.375, the “FIC Index” value ([2]; Chp peptide combined with Aztreonam, P. aeruginosa CFS-1292) was 0.375 and the “FIC Index” value ([2]; Chp peptide combined with Ciprofloxacin, P. aeruginosa CFS-1292) was 0.75. For the same sequence, the “FIC Index” value ([2]; Chp peptide combined with Colistin, P. aeruginosa CFS-1292) was 0.375, the “FIC Index” value ([2]; Chp peptide combined with Gentamicin, P. aeruginosa CFS-1292) was 0.5625 and the “FIC Index” value ([2]; Chp peptide combined with Imipenem, P. aeruginosa CFS-1292) was 0.375. For the same sequence, the “FIC Index” value ([2]; Chp peptide combined with Levofloxacin, P. aeruginosa CFS-1292) was 0.5, the “FIC Index” value ([2]; Chp peptide combined with Meropenem, P. aeruginosa CFS-1292) was 0.375 and the “FIC Index” value ([2]; Chp peptide combined with Piperacillin, P. aeruginosa CFS-1292) was 1. For the same sequence, the “FIC Index” value ([2]; Chp peptide combined with Tobramycin, P. aeruginosa CFS-1292) was 0.375, the “interaction between the Chp peptide and the antibiotic (FICI values)” value ([2]; P. aeruginosa CFS-1292, range of antibiotics) was “either synergy (i.e., ≤0.5) or strongly additive (i.e., >0.5-1)” and the FICI ([2]; combination with Amikacin) was 0.500. The FICI ([2]; combination with Azithromycin) was 0.156, the FICI ([2]; combination with Aztreonam) was 0.500 and the FICI ([2]; combination with Ciprofloxacin) was 0.500. For the same sequence, the FICI ([2]; combination with Colistin) was 0.375, the FICI ([2]; combination with Fosfomycin) was 0.250 and the FICI ([2]; combination with Gentamicin) was 0.281. For the same sequence, the FICI ([2]; combination with Imipenem) was 0.188, the FICI ([2]; combination with Piperacillin) was 0.188 and the FICI ([2]; combination with Rifampicin) was 0.563. The FICI ([2]; combination with Tobramycin) was 0.266, the “Chp peptide FIC” value ([2]; combined with Amikacin, P. aeruginosa CFS-1292) was 0.25 and the “Chp peptide MIC in checkerboard” value ([2]; combined with Amikacin) was 0.25 µg/mL. For the same sequence, the “Chp peptide FIC” value ([2]; combined with Azithromycin, P. aeruginosa CFS-1292) was 0.125, the “Chp peptide MIC in checkerboard” value ([2]; combined with Azithromycin) was 0.0625 µg/mL and the “Chp peptide FIC” value ([2]; combined with Aztreonam, P. aeruginosa CFS-1292) was 0.125. For the same sequence, the “Chp peptide MIC in checkerboard” value ([2]; combined with Aztreonam) was 0.0625 µg/mL, the “Chp peptide FIC” value ([2]; combined with Ciprofloxacin, P. aeruginosa CFS-1292) was 0.25 and the “Chp peptide MIC in checkerboard” value ([2]; combined with Ciprofloxacin) was 0.125 µg/mL. For the same sequence, the “Chp peptide FIC” value ([2]; combined with Colistin, P. aeruginosa CFS-1292) was 0.125, the “Chp peptide MIC in checkerboard” value ([2]; combined with Colistin) was 0.0625 µg/mL and the “Chp peptide FIC” value ([2]; combined with Gentamicin, P. aeruginosa CFS-1292) was 0.0625. For the same sequence, the “Chp peptide MIC in checkerboard” value ([2]; combined with Gentamicin) was 0.03125 µg/mL, the “Chp peptide FIC” value ([2]; combined with Imipenem, P. aeruginosa CFS-1292) was 0.25 and the “Chp peptide MIC in checkerboard” value ([2]; combined with Imipenem) was 0.125 µg/mL. The “Chp peptide FIC” value ([2]; combined with Levofloxacin, P. aeruginosa CFS-1292) was 0.25, the “Chp peptide MIC in checkerboard” value ([2]; combined with Levofloxacin) was 0.0625 µg/mL and the “Chp peptide FIC” value ([2]; combined with Meropenem, P. aeruginosa CFS-1292) was 0.125. The “Chp peptide MIC in checkerboard” value ([2]; combined with Meropenem) was 0.0625 µg/mL, the “Chp peptide FIC” value ([2]; combined with Piperacillin, P. aeruginosa CFS-1292) was 0.5 and the “Chp peptide MIC in checkerboard” value ([2]; combined with Piperacillin) was 0.25 µg/mL. The “Chp peptide FIC” value ([2]; combined with Tobramycin, P. aeruginosa CFS-1292) was 0.125, the “Chp peptide MIC in checkerboard” value ([2]; combined with Tobramycin) was 0.0625 µg/mL and the “45 hr MIC” value [3] was 2 µg/mL. The MIC50 (Klebsiella pneumoniae [4]; [12]) was 0.5 µg/mL, the MIC100 (Klebsiella pneumoniae [4]; [12]) was 1 µg/mL and the “MIC Range” value (Klebsiella pneumoniae [4]; [12]) was 0.125 to 1 µg/mL. The MIC (Klebsiella pneumoniae [4]; Klebsiella pneumoniae HM-44, CAA supplemented with human serum) was 0.125 µg/mL, the “MIC (μg/mL) against CFS-1292 in 100% CAA (1st run/2nd run)” value ([5]; 100% CAA, 1st run or single value) was 0.5 µg/mL and the “MIC (μg/mL) against CFS-1292 in CAA + […] human serum” value ([5]; CAA + […] human serum) was 0.5 µg/mL. The MIC ([6]; CAA media + 1 mM MgSO4) was 0.5 µg/mL, the MIC ([6]; CAA media + 2 mM CaCl2) was 0.25 µg/mL and the MIC ([6]; CAA media + + 1 mM MgSO4) was 0.25 µg/mL. For the same sequence, the MIC ([6]; CAA media alone) was 0.5 µg/mL, the “MIC BALB/C Mouse Serum” value ([7]; BALB/C mouse serum […]) was 32 µg/mL and the “MIC CAA” value ([7]; CAA) was 0.5 µg/mL. The “MIC New Zealand White Rabbit Serum” value ([7]; New Zealand White rabbit serum […]) was 2 µg/mL, the “MIC Sprague Dawley Rat Serum” value ([7]; Sprague Dawley rat serum […]) was 2 µg/mL and the “MIC Human Serum” value ([7]; human serum […]) was 0.5 µg/mL. For the same sequence, the “activity (good = MIC100 of ≤4) against all of P. aeruginosa, K. pneumoniae, A. baumannii, E. cloacae, and E. coli” value [8] was “good activity”, the “Fold change in MIC” value ([9]; CAA + 140 mM NaCl versus CAA without added NaCl) was 1 and the MIC, CAA + 140 mM NaCl ([9]; CAA + 140 mM NaCl, P. aeruginosa CFS-1292) was 0.5 µg/mL. It also gave an MIC, CAA (no added NaCl) ([9]; CAA, no added NaCl, P. aeruginosa CFS-1292) of 0.5 µg/mL.
